These results are taken from US20260325533A1, “CDK INHIBITOR COMPOUNDS” (ALEKSIA THERAPEUTICS, INC., priority 2023, published 2026).

Like-named read-outs stand apart in the source and are kept apart here. Some results are limits rather than exact numbers.

Format in all cases: biochemical
One assay deals with CDK4/CCND3 (Homo sapiens, UniProt P11802). The assay is described as follows: CDK4 homogeneous time-resolved fluorescence (HTRF) kinase assay. The conditions noted are these: CDK4/CCND. Put shortly:
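Inhibition of CDK4/CCND3 (1.5 nM) was measured at high ATP (1 mM) using 50 nM ULight-labelled 4E-BP1 Thr37/46 peptide; detection used 2 nM europium anti-phospho antibody after EDTA quench. IC50 values came from 11-point half-log titrations typically starting at 10 μM.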

For the next assay, the target named is CDK2/CCNE1 (Homo sapiens, UniProt P24941). The assay is described as follows: CDK2 homogeneous time-resolved fluorescence (HTRF) kinase assay. Particulars: CDK2/CCNE. The gist of the method: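 Compounds were titrated 11-point, half-log from typically 10 μM against 3 nM CDK2/cyclin E1 at 1 mM ATP, with a 20 min enzyme preincubation. Phosphorylation of 50 nM ULight-4E-BP1 peptide over 60 min at 23 °C was detected by europium anti-phospho antibody TR-FRET.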

A further assay concerns the target CDK1/CCNB1 (Homo sapiens, UniProt P06493). The assay is described as follows: CDK1 homogeneous time-resolved fluorescence (HTRF) kinase assay. Particulars: CDK1/CCNB. Put shortly: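 Read-out: TR-FRET (Eu anti-phospho-4E-BP1 Thr37/46 antibody, 2 nM; 665 nm or 665/615 ratio) after 60 min phosphorylation of 50 nM ULight-peptide by 0.5 nM CDK1/CCNB1 at 1 mM ATP, 23 °C. Compound preincubated 20 min with enzyme; 1% DMSO.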

The target in the next assay is CDK6/CCND1 (Homo sapiens, UniProt Q00534). The assay is described as follows: CDK6 homogeneous time-resolved fluorescence (HTRF) kinase assay. Particulars: CDK6/CCND. Put shortly: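 1 nM enzyme, 1 mM ATP, 50 nM ULight-4E-BP1 (Thr37/46) peptide, 1% DMSO; 20 min compound preincubation, 60 min reaction, 23 °C. EDTA stop, 2 nM Eu-anti-phospho-4E-BP1 antibody 60 min. TR-FRET 665 nm (or 665/615 ratio); IC50 from 11-point half-log titration, top 10 μM.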
Chain of CDK6/CCND1 (Q00534 whole entry): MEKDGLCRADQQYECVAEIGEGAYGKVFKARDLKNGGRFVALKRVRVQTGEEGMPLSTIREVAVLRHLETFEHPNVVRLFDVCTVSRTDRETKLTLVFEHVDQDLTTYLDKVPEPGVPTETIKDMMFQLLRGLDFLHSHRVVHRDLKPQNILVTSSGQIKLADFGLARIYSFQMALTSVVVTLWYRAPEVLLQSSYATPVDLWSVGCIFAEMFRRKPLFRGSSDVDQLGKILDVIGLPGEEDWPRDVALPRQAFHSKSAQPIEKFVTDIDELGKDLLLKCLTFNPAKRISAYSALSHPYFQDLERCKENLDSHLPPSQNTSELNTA
Chain of CDK6/CCND1 (P24385 whole entry partner): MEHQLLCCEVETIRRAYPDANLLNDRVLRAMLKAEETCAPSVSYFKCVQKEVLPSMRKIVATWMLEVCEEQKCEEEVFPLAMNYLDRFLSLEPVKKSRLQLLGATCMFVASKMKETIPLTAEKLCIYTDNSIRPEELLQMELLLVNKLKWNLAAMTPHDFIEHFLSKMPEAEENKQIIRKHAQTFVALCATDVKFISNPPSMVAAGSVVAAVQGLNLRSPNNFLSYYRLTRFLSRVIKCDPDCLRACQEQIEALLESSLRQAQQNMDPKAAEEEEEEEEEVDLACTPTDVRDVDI

Setting [1] is: >250 nM marked x, read-out: CDK4/CCND IC50 >250 nM.
The mark [2] stands for this setting: >250 nM marked x, read-out: CDK2/CCNE IC50 >250 nM.
[3] abbreviates: >250 nM marked x, read-out: CDK1/CCNB IC50 >250 nM.
Where [4] appears, read: >250 nM marked x, read-out: CDK6/CCND IC50 >250 nM.
Where [5] appears, read: 25-250 nM marked x, read-out: CDK6/CCND IC50 25-250 nM.
Where [6] appears, read: x = IC50 >250 nM, read-out: CDK4/CCND IC50 (>250 nM column).
[7] abbreviates: x = IC50 25-250 nM, read-out: CDK2/CCNE IC50 (25-250 nM).
Setting [8] is: x = IC50 >250 nM, read-out: CDK1/CCNB IC50 (>250 nM column).
The mark [9] stands for this setting: x = IC50 >250 nM, read-out: CDK6/CCND IC50 (>250 nM column).
Where [10] appears, read: x = IC50 25-250 nM, read-out: CDK4/CCND IC50 (25-250 nM).
Where [11] appears, read: x = IC50 <25 nM, read-out: CDK2/CCNE IC50 (<25 nM).
Where [12] appears, read: x = IC50 25-250 nM, read-out: CDK6/CCND IC50 (25-250 nM).
[13] abbreviates: x = IC50 25-250 nM, read-out: CDK1/CCNB IC50 (25-250 nM).

Chain of CDK1/CCNB1 (P06493 whole entry): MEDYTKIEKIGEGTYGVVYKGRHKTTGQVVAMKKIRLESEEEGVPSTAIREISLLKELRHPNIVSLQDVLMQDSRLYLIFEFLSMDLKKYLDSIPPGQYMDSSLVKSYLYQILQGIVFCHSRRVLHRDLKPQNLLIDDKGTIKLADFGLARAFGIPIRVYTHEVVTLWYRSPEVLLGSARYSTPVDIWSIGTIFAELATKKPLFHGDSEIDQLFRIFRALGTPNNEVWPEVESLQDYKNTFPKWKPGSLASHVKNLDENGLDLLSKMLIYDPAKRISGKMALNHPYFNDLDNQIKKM
Chain of CDK1/CCNB1 (P14635 whole entry partner): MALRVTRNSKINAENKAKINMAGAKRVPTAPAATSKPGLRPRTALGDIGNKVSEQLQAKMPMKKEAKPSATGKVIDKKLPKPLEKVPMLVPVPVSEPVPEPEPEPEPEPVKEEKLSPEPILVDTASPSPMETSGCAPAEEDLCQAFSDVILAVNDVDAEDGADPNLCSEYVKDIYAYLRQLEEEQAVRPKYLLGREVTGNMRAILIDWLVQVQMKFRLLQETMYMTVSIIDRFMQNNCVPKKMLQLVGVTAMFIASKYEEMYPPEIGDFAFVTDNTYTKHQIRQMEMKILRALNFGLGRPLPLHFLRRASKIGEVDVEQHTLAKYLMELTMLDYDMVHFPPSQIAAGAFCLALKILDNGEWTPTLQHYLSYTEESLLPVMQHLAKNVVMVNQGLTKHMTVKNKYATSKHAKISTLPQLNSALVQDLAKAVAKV
Chain of CDK4/CCND3 (P11802 whole entry): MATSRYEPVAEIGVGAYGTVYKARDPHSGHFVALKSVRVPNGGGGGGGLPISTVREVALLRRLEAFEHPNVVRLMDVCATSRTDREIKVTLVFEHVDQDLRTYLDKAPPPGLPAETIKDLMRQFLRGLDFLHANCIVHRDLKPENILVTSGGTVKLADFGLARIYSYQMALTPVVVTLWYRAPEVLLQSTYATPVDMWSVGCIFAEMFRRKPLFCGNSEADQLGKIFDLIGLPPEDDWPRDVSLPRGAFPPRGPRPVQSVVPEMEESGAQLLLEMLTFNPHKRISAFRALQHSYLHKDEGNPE
Chain of CDK4/CCND3 (P30281 whole entry partner): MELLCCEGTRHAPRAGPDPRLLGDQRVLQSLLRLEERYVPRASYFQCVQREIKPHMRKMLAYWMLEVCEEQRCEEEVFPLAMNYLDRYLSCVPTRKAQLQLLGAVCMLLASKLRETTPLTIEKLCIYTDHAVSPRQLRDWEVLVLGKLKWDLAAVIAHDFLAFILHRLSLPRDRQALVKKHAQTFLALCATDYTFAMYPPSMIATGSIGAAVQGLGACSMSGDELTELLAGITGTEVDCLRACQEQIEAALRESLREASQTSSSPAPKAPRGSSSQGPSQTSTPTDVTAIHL

In the case of `CCC(=O)N1CCC(c2nccc3cnc(Nc4ccc(S(C)(=O)=O)cc4)cc23)C1` (racemic) [Ex 234, 1-(3-(7-((4-(methylsulfonyl)phenyl)amino)-2,6-naphthyridin-1-yl)pyrrolidin-1-yl)propan-1-one], the IC50 at CDK4/CCND3 (setting [1]), on CDK2/CCNE1 (setting [2]), on CDK1/CCNB1 (setting [3]) and at CDK6/CCND1 (setting [4]) was above 250 nM throughout.

Take `CS(=O)(=O)c1ccc(Nc2cc3c(C4CCN(S(C)(=O)=O)C4)nccc3cn2)cc1` (racemic) [Ex 235, N-(4-(methylsulfonyl)phenyl)-5-(1-(methylsulfonyl)pyrrolidin-3-yl)-2,6-naphthyridin-3-amine]: the IC50 on CDK4/CCND3 (setting [1]), at CDK2/CCNE1 (setting [2]), at CDK1/CCNB1 (setting [3]) and on CDK6/CCND1 (setting [4]) was above 250 nM each time.

In the case of `CC(C)S(=O)(=O)N1CCC(c2nccc3cnc(Nc4ccc(S(C)(=O)=O)cc4)cc23)C1` (racemic) [Ex 236, 5-(1-(isopropylsulfonyl)pyrrolidin-3-yl)-N-(4-(methylsulfonyl)phenyl)-2,6-naphthyridin-3-amine], the IC50 on CDK4/CCND3 (setting [1]), at CDK2/CCNE1 (setting [2]), on CDK1/CCNB1 (setting [3]) and on CDK6/CCND1 (setting [4]) was above 250 nM each time.

Regarding `C=CCS(=O)(=O)N1CCC(c2nccc3cnc(Nc4ccc(S(C)(=O)=O)cc4)cc23)C1` (racemic) [Ex 237, 5-(1-(allylsulfonyl)pyrrolidin-3-yl)-N-(4-(methylsulfonyl)phenyl)-2,6-naphthyridin-3-amine], the IC50 on CDK4/CCND3 (setting [1]), at CDK2/CCNE1 (setting [2]), at CDK1/CCNB1 (setting [3]) and at CDK6/CCND1 (setting [4]) was above 250 nM throughout.

As to `CS(=O)(=O)c1ccc(Nc2cc3c(C4CCN(S(=O)(=O)c5cccnc5)C4)nccc3cn2)cc1` (racemic) [Ex 238, N-(4-(methylsulfonyl)phenyl)-5-(1-(pyridin-3-ylsulfonyl)pyrrolidin-3-yl)-2,6-naphthyridin-3-amine], the IC50 on CDK4/CCND3 (setting [1]), at CDK2/CCNE1 (setting [2]), at CDK1/CCNB1 (setting [3]) and on CDK6/CCND1 (setting [4]) was above 250 nM in each case.

Turning to `CS(=O)(=O)c1ccc(Nc2cc3c(C4CCN(S(=O)(=O)C5CC5)C4)nccc3cn2)cc1` (racemic) [Ex 239, 5-(1-(cyclopropylsulfonyl)pyrrolidin-3-yl)-N-(4-(methylsulfonyl)phenyl)-2,6-naphthyridin-3-amine], the IC50 at CDK4/CCND3 (setting [1]), at CDK2/CCNE1 (setting [2]), at CDK1/CCNB1 (setting [3]) and at CDK6/CCND1 (setting [4]) was above 250 nM in each case.

In the case of `CS(=O)(=O)c1ccc(Nc2cc3c(C4=CC(O)CCC4)nccc3cn2)cc1` (racemic) [Ex 240, 3-(7-((4-(methylsulfonyl)phenyl)amino)-2,6-naphthyridin-1-yl)cyclohex-2-en-1-ol], the IC50 on CDK4/CCND3 (setting [1]) is above 250 nM; on CDK2/CCNE1 (25-250 nM marked x, read-out: CDK2/CCNE IC50 25-250 nM) it was 25 to 250 nM; at CDK1/CCNB1 (setting [3]), above 250 nM; at CDK6/CCND1 (setting [5]), 25 to 250 nM.

Consider `CS(=O)(=O)c1ccc(Nc2cc3c(C#CC4CCC(C#N)CC4)nccc3cn2)cc1` (racemic) [Ex 252, 4-((7-((4-(methylsulfonyl)phenyl)amino)-2,6-naphthyridin-1-yl)ethynyl)cyclohexane-1-carbonitrile], for which the IC50 is 25 to 250 nM at CDK4/CCND3 (25-250 nM marked x, read-out: CDK4/CCND IC50 25-250 nM); below 25 nM on CDK2/CCNE1 (<25 nM, read-out: CDK2/CCNE IC50 <25 nM); above 250 nM at CDK1/CCNB1 (setting [3]); 25 to 250 nM at CDK6/CCND1 (setting [5]).

Consider `N=S(=O)(c1ccc(Nc2cc3c(C#Cc4cccnc4N)nccc3cn2)cc1)C1CCC1` (racemic) [Ex 416, (4-((5-((2-aminopyridin-3-yl)ethynyl)-2,6-naphthyridin-3-yl)amino)phenyl)(cyclobutyl)(imino)-l6-sulfanone], for which the IC50 is above 250 nM on CDK4/CCND3 (setting [6]), 25 to 250 nM on CDK2/CCNE1 (setting [7]), above 250 nM at CDK1/CCNB1 (setting [8]) and above 250 nM on CDK6/CCND1 (setting [9]).

On to `CN=S(C)(=O)c1ccc(Nc2cc3c(-c4ccc5c(cnn5CC(O)(C(F)(F)F)C(F)(F)F)c4C)nccc3cn2)cc1` (racemic) [Ex 470, methyl(4-((5-(4-methyl-1-(3,3,3-trifluoro-2-hydroxy-2-(trifluoromethyl)propyl)-1H-indazol-5-yl)-2,6-naphthyridin-3-yl)amino)phenyl)(methylimino)-l6-sulfanone], for which the IC50 is above 250 nM at CDK4/CCND3 (setting [6]), 25 to 250 nM on CDK2/CCNE1 (setting [7]), above 250 nM on CDK1/CCNB1 (setting [8]) and above 250 nM on CDK6/CCND1 (setting [9]).

As for `CCS(=N)(=O)c1ccc(Nc2cc3c(-c4ccc5c(cnn5CC(O)(C(F)(F)F)C(F)(F)F)c4C)nccc3cn2)cc1` (racemic) [Ex 473, ethyl(imino)(4-((5-(4-methyl-1-(3,3,3-trifluoro-2-hydroxy-2-(trifluoromethyl)propyl)-1H-indazol-5-yl)-2,6-naphthyridin-3-yl)amino)phenyl)-l6-sulfanone], the IC50 on CDK4/CCND3 (setting [10]) was 25 to 250 nM; at CDK2/CCNE1 (setting [11]), below 25 nM; at CDK1/CCNB1 (setting [8]), above 250 nM; on CDK6/CCND1 (setting [12]) it was 25 to 250 nM.

Take `CS(=O)(=O)c1ccc(Nc2cc3c(C#CC(O)CO)nccc3cn2)cc1` (racemic) [Ex 477, 4-(7-((4-(methylsulfonyl)phenyl)amino)-2,6-naphthyridin-1-yl)but-3-yne-1,2-diol]: the IC50 is above 250 nM on CDK4/CCND3 (setting [6]), below 25 nM at CDK2/CCNE1 (setting [11]), above 250 nM at CDK1/CCNB1 (setting [8]) and above 250 nM on CDK6/CCND1 (setting [9]).

For the molecule `CCS(=N)(=O)c1ccc(Nc2cc3c(C#Cc4ccc5oc(=O)[nH]c5c4)nccc3cn2)cc1` (racemic) [Ex 479, 5-((7-((4-(ethylsulfonimidoyl)phenyl)amino)-2,6-naphthyridin-1-yl)ethynyl)benzo[d]oxazol-2(3H)-one], the IC50 was 25 to 250 nM on CDK4/CCND3 (setting [10]), below 25 nM at CDK2/CCNE1 (setting [11]), 25 to 250 nM on CDK1/CCNB1 (setting [13]) and 25 to 250 nM at CDK6/CCND1 (setting [12]).

Take `CCS(=N)(=O)c1ccc(Nc2cc3c(C#Cc4ccc(=O)[nH]n4)nccc3cn2)cc1` (racemic) [Ex 485, 6-((7-((4-(ethylsulfonimidoyl)phenyl)amino)-2,6-naphthyridin-1-yl)ethynyl)pyridazin-3(2H)-one]: the IC50 was above 250 nM at CDK4/CCND3 (setting [6]), below 25 nM on CDK2/CCNE1 (setting [11]), above 250 nM on CDK1/CCNB1 (setting [8]) and above 250 nM at CDK6/CCND1 (setting [9]).

On to `CCS(=N)(=O)c1ccc(Nc2cc3c(C#Cc4cccnc4N)nccc3cn2)cc1` (racemic) [Ex 489, (4-((5-((2-aminopyridin-3-yl)ethynyl)-2,6-naphthyridin-3-yl)amino)phenyl)(ethyl)(imino)-l6-sulfanone], for which the IC50 was above 250 nM on CDK4/CCND3 (setting [6]), 25 to 250 nM at CDK2/CCNE1 (setting [7]), above 250 nM at CDK1/CCNB1 (setting [8]) and above 250 nM on CDK6/CCND1 (setting [9]).

Take `CS(=N)(=O)c1ccc(Nc2cc3c(C#Cc4ccc5oc(=O)[nH]c5c4)nccc3cn2)cc1` (racemic) [Ex 491, 5-((7-((4-(S-methylsulfonimidoyl)phenyl)amino)-2,6-naphthyridin-1-yl)ethynyl)benzo[d]oxazol-2(3H)-one]: the IC50 is 25 to 250 nM on CDK4/CCND3 (setting [10]); below 25 nM at CDK2/CCNE1 (setting [11]); 25 to 250 nM on CDK1/CCNB1 (setting [13]); 25 to 250 nM at CDK6/CCND1 (setting [12]); above 250 nM at CDK6/CCND1 (setting [9]).

Take `CS(=N)(=O)c1ccc(Nc2cc3c(C#Cc4ccc(=O)[nH]n4)nccc3cn2)cc1` (racemic) [Ex 497, 6-((7-((4-(S-methylsulfonimidoyl)phenyl)amino)-2,6-naphthyridin-1-yl)ethynyl)pyridazin-3(2H)-one]: the IC50 on CDK4/CCND3 (setting [6]) is above 250 nM; at CDK2/CCNE1 (setting [11]), below 25 nM; on CDK1/CCNB1 (setting [8]), above 250 nM; at CDK6/CCND1 (setting [9]) it was above 250 nM.

As for `CS(=N)(=O)c1ccc(Nc2cc3c(C#Cc4ccc(C#N)cc4)nccc3cn2)cc1` (racemic) [Ex 526, 4-((7-((4-(S-methylsulfonimidoyl)phenyl)amino)-2,6-naphthyridin-1-yl)ethynyl)benzonitrile], the IC50 on CDK4/CCND3 (setting [6]) was above 250 nM; at CDK2/CCNE1 (setting [7]) it was 25 to 250 nM; on CDK1/CCNB1 (setting [8]), above 250 nM; at CDK6/CCND1 (setting [9]) it was above 250 nM.
